Where two headings read alike, the source gives them in different places.
Columns and labels:
in vivo [1] = assay type: in vivo; conditions: rat, in vivo, po; read-out: LD 50 (Litchfield and Wilcoxon)
Rat = assay: in vivo; assay type: in vivo
in vivo [2] = conditions: rat, in vivo, po; for mortality at 120 h: read-out: % of dead animals; for mortality: read-out: % of dead animals per day
From the text: (§1) Five days subacute toxicity in rats per os
(§2) Animals: 5 female rats for each group, average body weight: 150g.

rats [3] = assay: in vivo; conditions: 5 days, rats, per os
From the text: as §1, §2

rats [4] = assay type: in vivo, rat; conditions: for Average number of lesions per animal / Gastrolesive effect, relative potency to naproxen / Gastrolesive effect, relative potency to piroxicam: single oral administration, male rats
Experimental: The test was modified by increasing the fast period to 70 hours and giving the total dose of substance in one single oral administration.
Animals: 10 male rats for each group, average body weight: 150g.

pyresis = assay: Antipyretic activity according to Burn et al.; assay type: in vivo, rat; conditions: for Reduction of the pyresis at hour 4: female rats
From the text: Animals: 6 female rats for each group, average body weight 200 g.

phenylquinone writhes = assay: Analgesic activity according to Hendershot et al., phenylquinone writhes, modified; assay type: in vivo, mouse
Experimental: Analgesic activity according to HENDERSHOT et al., Jour. Pharm.
The test was modified by numbering the writhes only along the time interval from 5 to 15 minutes since the injection of phenylquinone. The injection was made 2 hours after the oral administration of the compound to be tested.
Animals: 8 female mice for each group, average body weight: 25g

carrageenin paw edema = assay: Antiinflammatory activity according to Winter et al., carrageenin paw edema, modified; assay type: in vivo, rat
Experimental: Antiinflammatory activity according to WINTER et al., Proc. Soc. Exp. Biol. Med.; 111, 544; 1962.
The test was modified in that the injection of carrageenin and the administration of the compound by gastric gavage were carried out simultaneously and the paw edema was measured at the plethysmograph after 4 hours.
Animals: 6 female rats for each group, average body weight: 150g

in vivo [5] = conditions: mouse, po
[6] = 100 mg/kg (maximum tested dose)
[7] = 50 mg/g (so in the source) per os
[8] = 100 mg/g (so in the source) per os
[9] = Mus musculus, 50 mg/kg oral, 2 h before phenylquinone, 5-15 min, female mice
[10] = Mus musculus, 100 mg/kg oral, 2 h before phenylquinone, 5-15 min, female mice
[11] = Rattus norvegicus, po, 4 h, 50 mg/kg per os, female rats, read-out: % inhibition of the edema after 4 hours
[12] = Rattus norvegicus, po, 4 h, 100 mg/kg per os, female rats, read-out: % inhibition of the edema after 4 hours

CCN(CC)CCNC(=O)c1nn(-c2ccccc2)c2c1N(C)S(=O)(=O)c1ccccc1-2 [Compound I-1, 2-methyl-5-phenyl-1,2-benzothiazino[3,4-d]pyrazole-3-yl-carboxylic acid, 2-(N,N-diethylamino)ethylamide,S,S-dioxide]
LD50 (in vivo [1]): 2700 mg/kg | LD 50, relative ratio to piroxicam (Rat; in vivo): 10.0 | mortality at 120 h (in vivo [2]; 200 mg/kg/day): 0% | Subacute toxicity, relative ratio to naproxen (rats [3]): 4 | Subacute toxicity, relative ratio to piroxicam (rats [3]): 10 | Average number of lesions per animal (rats [4]; [6]): 0 | Gastrolesive effect, relative potency to naproxen (rats [4]): > 20 | Gastrolesive effect, relative potency to piroxicam (rats [4]): 100 | Antipyretic relative potency to naproxen (pyresis; [7]): 0.8 | Antipyretic relative potency to piroxicam (pyresis; [7]): 1.0 | Reduction of the pyresis at hour 4 (pyresis; [7]): 0.86 °C | Antipyretic relative potency to naproxen (pyresis; [8]): 1.3 | Antipyretic relative potency to piroxicam (pyresis; [8]): 1.6 | Reduction of the pyresis at hour 4 (pyresis; [8]): 1.44 °C | Analgesic relative potency to naproxen (phenylquinone writhes; 50 mg/kg oral): 1.3 | Analgesic relative potency to piroxicam (phenylquinone writhes; 50 mg/kg oral): 0.9 | Analgesic relative potency to naproxen (phenylquinone writhes; 100 mg/kg oral): 2.2 | Analgesic relative potency to piroxicam (phenylquinone writhes; 100 mg/kg oral): 1.6 | inhibition in vivo at 50 mg/kg (phenylquinone writhes; [9]): 43% | inhibition in vivo at 100 mg/kg (phenylquinone writhes; [10]): 72% | Antiinflammatory relative potency to naproxen (carrageenin paw edema; 50 mg/kg per os): 0.5 | Antiinflammatory relative potency to piroxicam (carrageenin paw edema; 50 mg/kg per os): 0.2 | Antiinflammatory relative potency to naproxen (carrageenin paw edema; 100 mg/kg per os): 0.8 | Antiinflammatory relative potency to piroxicam (carrageenin paw edema; 100 mg/kg per os): 0.4 | inhibition in vivo at 50 mg/kg (carrageenin paw edema; [11]): 10% | inhibition in vivo at 100 mg/kg (carrageenin paw edema; [12]): 16% | LD 50, relative ratio to naproxen (Mouse; per os): 2.3 | LD 50, relative ratio to piroxicam (Mouse; per os): 7.9 | LD50 (in vivo [5]): 2850 mg/kg

CN(C)CCCNC(=O)c1nn(-c2ccccc2)c2c1N(C)S(=O)(=O)c1ccccc1-2 [Compound I-2]
LD50 (in vivo [1]): 2400 mg/kg | LD 50, relative ratio to naproxen (Rat; per os): 4.4 | LD 50, relative ratio to piroxicam (Rat; per os): 8.9 | mortality at 120 h (in vivo [2]; 200 mg/kg/day): 0% | Subacute toxicity, relative ratio to naproxen (rats [3]): 4 | Subacute toxicity, relative ratio to piroxicam (rats [3]): 10 | Average number of lesions per animal (rats [4]; [6]): 0 | Gastrolesive effect, relative potency to naproxen (rats [4]): > 20 | Gastrolesive effect, relative potency to piroxicam (rats [4]): 100 | Antipyretic relative potency to naproxen (pyresis; [7]): 0.5 | Antipyretic relative potency to piroxicam (pyresis; [7]): 0.7 | Reduction of the pyresis at hour 4 (pyresis; [7]): 0.58 °C | Antipyretic relative potency to naproxen (pyresis; [8]): 0.8 | Antipyretic relative potency to piroxicam (pyresis; [8]): 1.0 | Reduction of the pyresis at hour 4 (pyresis; [8]): 0.89 °C | Analgesic relative potency to naproxen (phenylquinone writhes; 50 mg/kg oral): 2.1 | Analgesic relative potency to piroxicam (phenylquinone writhes; 50 mg/kg oral): 1.5 | Analgesic relative potency to naproxen (phenylquinone writhes; 100 mg/kg oral): 2.8 | Analgesic relative potency to piroxicam (phenylquinone writhes; 100 mg/kg oral): 2.0 | inhibition in vivo at 50 mg/kg (phenylquinone writhes; [9]): 68% | inhibition in vivo at 100 mg/kg (phenylquinone writhes; [10]): 92% | Antiinflammatory relative potency to naproxen (carrageenin paw edema; 50 mg/kg per os): 0.6 | Antiinflammatory relative potency to piroxicam (carrageenin paw edema; 50 mg/kg per os): 0.3 | Antiinflammatory relative potency to naproxen (carrageenin paw edema; 100 mg/kg per os): 0.8 | Antiinflammatory relative potency to piroxicam (carrageenin paw edema; 100 mg/kg per os): 0.4 | inhibition in vivo at 50 mg/kg (carrageenin paw edema; [11]): 12% | inhibition in vivo at 100 mg/kg (carrageenin paw edema; [12]): 17% | LD 50, relative ratio to naproxen (Mouse; per os): 1.1 | LD 50, relative ratio to piroxicam (Mouse; per os): 3.8 | LD50 (in vivo [5]): 1380 mg/kg

CN1c2c(C(=O)NCCCN3CCOCC3)nn(-c3ccccc3)c2-c2ccccc2S1(=O)=O [Compound I-3]
LD50 (in vivo [1]): 1080 mg/kg | LD 50, relative ratio to piroxicam (Rat; in vivo): 4.0 | mortality at 120 h (in vivo [2]; 200 mg/kg/day): 0% | Subacute toxicity, relative ratio to naproxen (rats [3]): 4 | Subacute toxicity, relative ratio to piroxicam (rats [3]): 10 | Average number of lesions per animal (rats [4]; [6]): 0 | Gastrolesive effect, relative potency to naproxen (rats [4]): > 20 | Gastrolesive effect, relative potency to piroxicam (rats [4]): 100 | Antipyretic relative potency to naproxen (pyresis; [7]): 0.7 | Antipyretic relative potency to piroxicam (pyresis; [7]): 0.9 | Reduction of the pyresis at hour 4 (pyresis; [7]): 0.77 °C | Antipyretic relative potency to naproxen (pyresis; [8]): 1.0 | Antipyretic relative potency to piroxicam (pyresis; [8]): 1.2 | Reduction of the pyresis at hour 4 (pyresis; [8]): 1.08 °C | Analgesic relative potency to naproxen (phenylquinone writhes; 50 mg/kg oral): 1.0 | Analgesic relative potency to piroxicam (phenylquinone writhes; 50 mg/kg oral): 0.7 | Analgesic relative potency to naproxen (phenylquinone writhes; 100 mg/kg oral): 1.8 | Analgesic relative potency to piroxicam (phenylquinone writhes; 100 mg/kg oral): 1.3 | inhibition in vivo at 50 mg/kg (phenylquinone writhes; [9]): 33% | inhibition in vivo at 100 mg/kg (phenylquinone writhes; [10]): 60% | Antiinflammatory relative potency to naproxen (carrageenin paw edema; 50 mg/kg per os): 0.4 | Antiinflammatory relative potency to piroxicam (carrageenin paw edema; 50 mg/kg per os): 0.2 | Antiinflammatory relative potency to naproxen (carrageenin paw edema; 100 mg/kg per os): 0.7 | Antiinflammatory relative potency to piroxicam (carrageenin paw edema; 100 mg/kg per os): 0.3 | inhibition in vivo at 50 mg/kg (carrageenin paw edema; [11]): 9% | inhibition in vivo at 100 mg/kg (carrageenin paw edema; [12]): 15% | LD 50, relative ratio to naproxen (Mouse; per os): 1.8 | LD 50, relative ratio to piroxicam (Mouse; per os): 6.1 | LD50 (in vivo [5]): 2200 mg/kg

CN1c2c(C(=O)NCCCNC3CCCCC3)nn(-c3ccccc3)c2-c2ccccc2S1(=O)=O [Compound I-4]
LD50 (in vivo [1]): 1090 mg/kg | LD 50, relative ratio to piroxicam (Rat; in vivo): 4.0 | mortality at 120 h (in vivo [2]; 100 mg/kg/day): 0% | mortality (in vivo [2]; 100 mg/kg/day): 0% | mortality at 120 h (in vivo [2]; 200 mg/kg/day): 20% | mortality (in vivo [2]; 200 mg/kg/day): 4% | Subacute toxicity, relative ratio to naproxen (rats [3]): 2 | Subacute toxicity, relative ratio to piroxicam (rats [3]): 5 | Average number of lesions per animal (rats [4]; [6]): 0 | Gastrolesive effect, relative potency to naproxen (rats [4]): > 20 | Gastrolesive effect, relative potency to piroxicam (rats [4]): 100 | Antipyretic relative potency to naproxen (pyresis; [7]): 1.2 | Antipyretic relative potency to piroxicam (pyresis; [7]): 1.6 | Reduction of the pyresis at hour 4 (pyresis; [7]): 1.40 °C | Antipyretic relative potency to naproxen (pyresis; [8]): 1.3 | Antipyretic relative potency to piroxicam (pyresis; [8]): 1.7 | Reduction of the pyresis at hour 4 (pyresis; [8]): 1.47 °C | Analgesic relative potency to naproxen (phenylquinone writhes; 50 mg/kg oral): 1.3 | Analgesic relative potency to piroxicam (phenylquinone writhes; 50 mg/kg oral): 0.9 | Analgesic relative potency to naproxen (phenylquinone writhes; 100 mg/kg oral): 1.8 | Analgesic relative potency to piroxicam (phenylquinone writhes; 100 mg/kg oral): 1.3 | inhibition in vivo at 50 mg/kg (phenylquinone writhes; [9]): 42% | inhibition in vivo at 100 mg/kg (phenylquinone writhes; [10]): 59% | Antiinflammatory relative potency to naproxen (carrageenin paw edema; 50 mg/kg per os): 1.7 | Antiinflammatory relative potency to piroxicam (carrageenin paw edema; 50 mg/kg per os): 0.8 | Antiinflammatory relative potency to naproxen (carrageenin paw edema; 100 mg/kg per os): 2.4 | Antiinflammatory relative potency to piroxicam (carrageenin paw edema; 100 mg/kg per os): 1.1 | inhibition in vivo at 50 mg/kg (carrageenin paw edema; [11]): 36% | inhibition in vivo at 100 mg/kg (carrageenin paw edema; [12]): 50% | LD 50, relative ratio to piroxicam (Mouse; in vivo): 2.0 | LD50 (in vivo [5]): 720 mg/kg

COc1ccc2cc([C@H](C)C(=O)O)ccc2c1 [Naproxen, naproxen, reference compound]
Average number of lesions per animal (rats [4]; 5 mg/kg): 0 | Average number of lesions per animal (rats [4]; 7.5 mg/kg): 0.9 | Gastric ulcerogenicity (in words) (rats [4]; rats): considerable gastrolesive power | Reduction of the pyresis at hour 4 (pyresis; 30 mg/g (so in the source) per os): 1.12 °C | inhibition in vivo at 30 mg/kg (phenylquinone writhes; Mus musculus, 30 mg/kg oral, 2 h before phenylquinone, 5-15 min, female mice): 33% | inhibition in vivo at 30 mg/kg (carrageenin paw edema; Rattus norvegicus, po, 4 h, 30 mg/kg per os, female rats, read-out: % inhibition of the edema after 4 hours): 21%

Reference: patent publication US4378358A, “Benzothiazinopyrazoles having pharmacological activity” (Mediolanum Farmaceutici s.r.l., priority 1980, dated 1983)
